# Results reported in US8871681B2, “Herbicidal compositions comprising 4-amino-3-chloro-5-fluoro-6-(4-chloro-2-fluoro-3-methoxyphenyl) pyridine-2-carboxylic acid or a derivative thereof and certain sulfonylureas” (Dow AgroSciences LLC, priority 2012, dated 2014).
# Test system: LEFCH (Leptochloa chinensis, Chinese sprangletop)
# Assay: In-water applied weed control, transplanted paddy rice, greenhouse (Example II)
# Assay type: in vivo, Leptochloa chinensis (L.) Nees
# Procedure, shortened: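 Transplanted rice and weeds at first to fourth true leaf stage in flooded mud pots (2.5–3 cm water), greenhouse ~29/26 °C day/night. Herbicides alone or mixed, in 1.25% crop oil concentrate (acetone for technical material), injected into the flood; visual 0–100% injury after ~3 weeks, expected mixture effects by Colby.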
smiles,measurement,setting,value
"COc1c(Cl)ccc(-c2nc(C(=O)O)c(Cl)c(N)c2F)c1F [Compound A Acid, 4-amino-3-chloro-5-fluoro-6-(4-chloro-2-fluoro-3-methoxy-phenyl)pyridine-2-carboxylic acid]",Visual Weed Control (%) - 19 DAA LEFCH Obs,"Table 31, 42 gae/ha alone",10%
same,Visual Weed Control (%) - 22 DAA LEFCH Obs,"Table 34, 10.6 gae/ha alone",20%
same,Visual Weed Control (%) - 22 DAA LEFCH Obs,"Table 34, 21.2 gae/ha alone",40%
same,Visual Weed Control (%) - 22 DAA LEFCH Obs,"Table 34, 42.4 gae/ha alone",60%
same,Visual Weed Control (%) - 21 DAA LEFCH Obs,"Table 36, 17.5 gae/ha alone",20%
same,Visual Weed Control (%) - 20 DAA LEFCH Obs,"Table 43, 10.6 gae/ha alone",30%
same,Visual Weed Control (%) - 20 DAA LEFCH Obs,"Table 43, 21.2 gae/ha alone",20%
same,Visual Weed Control (%) - 20 DAA LEFCH Obs,"Table 43, 42.4 gae/ha alone",75%
same,Visual Weed Control (%) - 21 DAA LEFCH Obs,"Table 47, 17.5 gae/ha alone",20%
same,Visual Weed Control (%) - 20 DAA LEFCH Obs,"Table 49, 10.6 gae/ha alone",30%
same,Visual Weed Control (%) - 20 DAA LEFCH Obs,"Table 49, 21.2 gae/ha alone",20%
same,Visual Weed Control (%) - 20 DAA LEFCH Obs,"Table 49, 42.4 gae/ha alone",75%
"COCC(=O)OC(c1ncccc1S(=O)(=O)NC(=O)Nc1nc(OC)cc(OC)n1)C(C)F (centres unmarked) [Flucetosulfuron, 1-[3-[[[[(4,6-dimethoxy-2-pyrimidinyl)amino]carbonyl]amino]sulfonyl]-2-pyridinyl]-2-fluoropropyl 2-methoxyacetate]",Visual Weed Control (%) - 21 DAA LEFCH Obs,"Table 36, 0.1 gai/ha alone",0%
same,Visual Weed Control (%) - 21 DAA LEFCH Obs,"Table 36, 0.2 gai/ha alone",0%
COc1c(Cl)ccc(-c2nc(C(=O)OCc3ccccc3)c(Cl)c(N)c2F)c1F [Compound A Benzyl Ester],Visual Weed Control (%) - 22 DAA LEFCH Obs,"Table 35, 4.38 gae/ha alone",20%
same,Visual Weed Control (%) - 20 DAA LEFCH Obs,"Table 50, 4.38 gae/ha alone",20%
"COC(=O)c1ccccc1CS(=O)(=O)NC(=O)Nc1nc(OC)cc(OC)n1 [Bensulfuron-methyl, methyl 2-[[[[[(4,6-dimethoxy-2-pyrimidinyl)amino]carbonyl]amino]sulfonyl]methyl]benzoate, reference compound]",Visual Weed Control (%) - 19 DAA LEFCH Obs,"Table 31, 70 gai/ha alone",23%
